Laboratory results published in ChEMBL document CHEMBL1133048, “A QSAR study investigating the effect of L-alanine ester variation on the anti-HIV activity of some phosphoramidate derivatives of d4T” (2000).

Columns and labels:
CCRF-CEM [1] = test: Cytotoxic concentration required to inhibit CEM cell proliferation by 50%; assay type: functional; conditions: Homo sapiens
CCRF-CEM [2] = test: Effective concentration required to inhibit 50% of HIV-1 induced giant cell formation in CEM cell cultures; assay type: functional, Homo sapiens
CCRF-CEM [3] = test: Effective concentration required to inhibit 50% of HIV-2 induced giant cell formation in CEM cell cultures; assay type: functional, Homo sapiens

CCCOC(=O)C(C)NP(=O)(OCC1C=CC(n2cc(C)c(=O)[nH]c2=O)O1)Oc1ccccc1 (stereo not drawn)
CC50 (CCRF-CEM [1]): 40 µM
Log 1/EC50 (CCRF-CEM [2]): 1.33
Log 1/EC50 (CCRF-CEM [3]): 1.1

Cc1cn(C2C=CC(COP(=O)(NC(C)C(=O)Oc3ccccc3)Oc3ccccc3)O2)c(=O)[nH]c1=O (stereo not drawn)
Log 1/EC50 (CCRF-CEM [2]): 1.6
Log 1/EC50 (CCRF-CEM [3]): 1.1

Cc1cn(C2C=CC(COP(=O)(NC(C)C(=O)OCCc3ccccc3)Oc3ccccc3)O2)c(=O)[nH]c1=O (stereo not drawn)
CC50 (CCRF-CEM [1]): 250 µM
Log 1/EC50 (CCRF-CEM [2]): 0.071
Log 1/EC50 (CCRF-CEM [3]): 0.155

Cc1cn(C2C=CC(COP(=O)(NC(C)C(=O)OCC(C)(C)C)Oc3ccccc3)O2)c(=O)[nH]c1=O (stereo not drawn)
CC50 (CCRF-CEM [1]): 43.5 µM
Log 1/EC50 (CCRF-CEM [2]): 1.3
Log 1/EC50 (CCRF-CEM [3]): 1.35

CCCCCCOC(=O)C(C)NP(=O)(OCC1C=CC(n2cc(C)c(=O)[nH]c2=O)O1)Oc1ccccc1 (stereo not drawn)
CC50 (CCRF-CEM [1]): 48 µM
Log 1/EC50 (CCRF-CEM [2]): 1.22
Log 1/EC50 (CCRF-CEM [3]): 1.26

COC(=O)C(C)NP(=O)(OC[C@@H]1C=C[C@H](n2cc(C)c(=O)[nH]c2=O)O1)Oc1ccccc1 (stereo partly drawn)
CC50 (CCRF-CEM [1]): 100 µM
Log 1/EC50 (CCRF-CEM [2]): 1.13
Log 1/EC50 (CCRF-CEM [3]): 1.13

Cc1cn(C2C=CC(COP(=O)(NC(C)C(=O)OCc3cccc4ccccc34)Oc3ccccc3)O2)c(=O)[nH]c1=O (stereo not drawn)
CC50 (CCRF-CEM [1]): 21.6 µM
Log 1/EC50 (CCRF-CEM [2]): 1.52
Log 1/EC50 (CCRF-CEM [3]): 1.22

CCCCOC(=O)C(C)NP(=O)(OCC1C=CC(n2cc(C)c(=O)[nH]c2=O)O1)Oc1ccccc1 (stereo not drawn)
CC50 (CCRF-CEM [1]): 60 µM

CCCCCOC(=O)C(C)NP(=O)(OCC1C=CC(n2cc(C)c(=O)[nH]c2=O)O1)Oc1ccccc1 (stereo not drawn)
CC50 (CCRF-CEM [1]): 40.5 µM
Log 1/EC50 (CCRF-CEM [2]): 1.35
Log 1/EC50 (CCRF-CEM [3]): 1.1

Cc1cn(C2C=CC(COP(=O)(NC(C)C(=O)OCC3CCCCC3)Oc3ccccc3)O2)c(=O)[nH]c1=O (stereo not drawn)
CC50 (CCRF-CEM [1]): 12.1 µM
Log 1/EC50 (CCRF-CEM [2]): 1.4

Cc1cn(C2C=CC(COP(=O)(NC(C)C(=O)OCCCc3ccccc3)Oc3ccccc3)O2)c(=O)[nH]c1=O (stereo not drawn)
CC50 (CCRF-CEM [1]): 250 µM
Log 1/EC50 (CCRF-CEM [2]): 0
Log 1/EC50 (CCRF-CEM [3]): -0.217

CCOC(=O)C(C)NP(=O)(OCC1C=CC(n2cc(C)c(=O)[nH]c2=O)O1)Oc1ccccc1 (stereo not drawn)
CC50 (CCRF-CEM [1]): 55 µM
Log 1/EC50 (CCRF-CEM [2]): 1
Log 1/EC50 (CCRF-CEM [3]): 1.16

Cc1cn(C2C=CC(COP(=O)(NC(C)C(=O)OC3CCCCC3)Oc3ccccc3)O2)c(=O)[nH]c1=O (stereo not drawn)
CC50 (CCRF-CEM [1]): 51.4 µM
Log 1/EC50 (CCRF-CEM [2]): 1.19
Log 1/EC50 (CCRF-CEM [3]): 1.13

Cc1cn(C2C=CC(COP(=O)(NC(C)C(=O)OC(C)(C)C)Oc3ccccc3)O2)c(=O)[nH]c1=O (stereo not drawn)
CC50 (CCRF-CEM [1]): 250 µM
Log 1/EC50 (CCRF-CEM [2]): 0.071
Log 1/EC50 (CCRF-CEM [3]): -0.041
